Data from patent publication US8613931B2, “Compounds for treating beta-amyloidoses” (Affiris AG, priority 2008, dated 2013).
Blank lines part the entries; values can stand above or below the molecule they belong to.

Tests used:
[1] = system: full length and/or truncated and modified forms of Aβ; assay: In vivo characterisation of mimotopes: detection of Aβ/truncated/modified forms; design: species or system C57/bl6 mice; key: +: All peptides listed in Table 4 mount specific immune reactions against full length and/or truncated and modified forms of Aβ or fragments thereof; details: MV-001 derived mimotopes; mimotope vaccination
Protocol: Inhibiting as well as non-inhibiting peptides were coupled to KLH and injected into mice (wildtype C57/Bl6 mice; subcutaneous injection into the flank) together with an appropriate adjuvant (aluminium hydroxide). Animals were vaccinated 3-6 times in biweekly intervals and sera were taken biweekly as well. Titers to injected peptides, as well as to an irrelevant peptide were determined with every serum. Furthermore, titers against the recombinant human Aβ protein, and against original peptides were determined respectively. In general sera were analysed by reaction against peptides coupled to Bovine Serum Albumin (BSA) and recombinant full length proteins which were immobilised on ELISA plates. Titers were determined using anti mouse IgG specific antibodies. For detailed results see FIGS. 6, 7 and 8 respectively.
Female C57/bl6 mice, 5-6 mice per group, were subcutaneously immunized with 30 μg peptide coupled to KLH. Control groups were administered original epitope-KLH conjugates respectively. As adjuvant alum was used (always 1 mg per mouse). […] The in vitro ELISA assay to determine the antibody titer was performed with sera of single mice after each vaccination in a two week interval (see FIGS. 6 and 7 respectively). The wells of the ELISA plate were coated with mimotope-BSA conjugate and an irrelevant peptide-BSA conjugate (negative control). The positive control was performed by reaction of the parental antibody with the respective mimotope-BSA conjugate. The detection was performed with anti-mouse IgG. Additionally, recombinant proteins were immobilised on ELISA plates and sera reacted accordingly. FIGS. 6 to 8 show representative examples for assays used to characterise mimotopes in vivo.

[2] = system: monoclonal antibody MV-001; assay: In vitro binding assay (ELISA), parental antibody MV-001; design: species or system C57/Bl6 mice; details: peptide-BSA on ELISA plate; OD halfmax, dilution factor 1:X of parental AB MV-001
Protocol: 1. In vitro binding assay (ELISA)
Peptides derived from Phage Display as well as variants thereof were coupled to BSA and bound to ELISA plates (1 μM; as indicated in the respective figures) and subsequently incubated with the monoclonal antibody that was used for the screening procedure to analyse binding capacity of identified peptides.

[3] = system: monoclonal antibody MV-001; assay: In vitro inhibition assay (ELISA), MV-001 binding to original epitope; design: species or system C57/Bl6 mice; details: OD at 10 μg peptide compared to original peptide
Protocol: (§1) 2. In vitro inhibition assay (ELISA)
(§2) Different amounts of peptides (concentrations ranging from 10 μg to 0.08 μg; serial dilutions), derived from Phage Display were incubated with the monoclonal antibody that was used for the screening procedure. Peptides diminishing subsequent binding of the antibody to the original epitope coated on ELISA plates were considered as inhibiting in this assay.

Tg2576 AD mouse model = assay: Area occupied by amyloid plaques in Tg2576 mice after mimotope vaccination; format: in vivo; details: Tg2576, 6 s.c. injections at monthly intervals, peptide-KLH conjugate with ALUM; for average area occupied by amyloid plaques: mAb 3A5 staining, control group 0.35%; for reduction of area occupied by amyloid plaques following mimotope treatment: versus control group
[4] = system: monoclonal antibody MV-004; assay: In vitro inhibition assay (ELISA), MV-004 binding to original epitope; design: species or system BalbC mice; details: OD at 10 μg peptide compared to original peptide
Protocol: as §1, §2

[5] = molecular target: monoclonal antibody MV-004; assay: ELISA, peptide-BSA coated, MV-004; details: for Binding Capacity: scale: code
[6] = molecular target: monoclonal antibody MV-004; assay: inhibition ELISA; competitor: coated original epitope p4372; details: for Inhibition Capacity: scale: code
[7] = molecular target: monoclonal antibody MV-003; assay: inhibition ELISA; competitor: coated original epitope p4373
[8] = molecular target: monoclonal antibody MV-003; assay: ELISA, peptide-BSA coated, MV-003; details: for Binding Capacity: scale: code

Molecule: ERWHEKC [p4790]
Inhibition Capacity [4]: 2 (strong inhibition (as original epitope; OD of 10 μg peptide below 2 times of original peptide))

Molecule: SEFKHGC [p4381]
Detection of Aβ/truncated/modified forms [1]: + | Binding Capacity [2]: 3 (strong binding :>20000) | average area occupied by amyloid plaques (Tg2576 AD mouse model): 0.11% | reduction of area occupied by amyloid plaques following mimotope treatment (Tg2576 AD mouse model): 67% | Inhibition Capacity [3]: 1 (Weaker than original epitope (OD of 10 μg peptide below 3 times of original peptide))

Molecule: EVWHRHQC [p4417]
Inhibition Capacity [4]: 1 (Weaker than original epitope (OD of 10 μg peptide below 5 times of original peptide))

Molecule: TSVFRHC [p4383]
Detection of Aβ/truncated/modified forms [1]: + | Binding Capacity [2]: 3 (strong binding :>20000) | Inhibition Capacity [3]: 1 (Weaker than original epitope (OD of 10 μg peptide below 3 times of original peptide))

Molecule: EVWHRGC [p4788]
Inhibition Capacity [4]: 1 (Weaker than original epitope (OD of 10 μg peptide below 5 times of original peptide))

Molecule: ELWHRYPC [p4420]
Inhibition Capacity [4]: 1 (Weaker than original epitope (OD of 10 μg peptide below 5 times of original peptide))

Molecule: ELWHRAFC [p4665]
Inhibition Capacity [4]: 2 (strong inhibition (as original epitope; OD of 10 μg peptide below 2 times of original peptide))

Molecule: EVWHRHC [p4789]
Inhibition Capacity [4]: 1 (Weaker than original epitope (OD of 10 μg peptide below 5 times of original peptide))

Molecule: ELWHRAC [p4786]
Inhibition Capacity [4]: 1 (Weaker than original epitope (OD of 10 μg peptide below 5 times of original peptide))

Molecule: ERWHEKHC [p4418]
Inhibition Capacity [4]: 2 (strong inhibition (as original epitope; OD of 10 μg peptide below 2 times of original peptide))

Molecule: ILFRHGC [p4390]
Detection of Aβ/truncated/modified forms [1]: + | Binding Capacity [2]: 3 (strong binding :>20000) | average area occupied by amyloid plaques (Tg2576 AD mouse model): 0.14% | reduction of area occupied by amyloid plaques following mimotope treatment (Tg2576 AD mouse model): 60% | Inhibition Capacity [3]: 1 (Weaker than original epitope (OD of 10 μg peptide below 3 times of original peptide))

Molecule: SQFRHYC [p4385]
Detection of Aβ/truncated/modified forms [1]: + | Inhibition Capacity [3]: 1 (Weaker than original epitope (OD of 10 μg peptide below 3 times of original peptide))

Molecule: NWFPHPC [p4392]
Binding Capacity [2]: 1 (weak binding :<4000) | Inhibition Capacity [3]: 1 (Weaker than original epitope (OD of 10 μg peptide below 3 times of original peptide))

Molecule: EVWHRLQC [p4419]
Inhibition Capacity [4]: 2 (strong inhibition (as original epitope; OD of 10 μg peptide below 2 times of original peptide))

Molecule: LMFRHNC [p4386]
Detection of Aβ/truncated/modified forms [1]: + | Binding Capacity [2]: 3 (strong binding :>20000) | Inhibition Capacity [3]: 1 (Weaker than original epitope (OD of 10 μg peptide below 3 times of original peptide))

Molecule: EVWHRHQC [p4417]
Binding Capacity [5]: 2 | Inhibition Capacity (code (weaker than original epitope)) [6]: 1

Molecule: VRWDVYPC [p4396]
Binding Capacity (code (weak binding, OD halfmax 1:<16000)) [8]: 1

Molecule: IRYDAPLC [p4397]
Inhibition Capacity (code (weaker than original epitope)) [7]: 1 | Binding Capacity (code (weak binding, OD halfmax 1:<16000)) [8]: 1

Molecule: IRWDTPC [p4395]
Inhibition Capacity (code (weaker than original epitope)) [7]: 1 | Binding Capacity [8]: 2

Molecule: IRYDMAGC [p4399]
Binding Capacity (code (weak binding, OD halfmax 1:<16000)) [8]: 1

Now from value to molecule, other results behind:

Binding Capacity [2]: 3 (strong binding :>20000)
Molecule: THTDFRHC [p4725]
Detection of Aβ/truncated/modified forms [1]: + | Inhibition Capacity [3]: 1 (Weaker than original epitope (OD of 10 μg peptide below 3 times of original peptide))

Binding Capacity [2]: 3 (strong binding :>20000)
Molecule: TLHEFRHC [p4715]
Detection of Aβ/truncated/modified forms [1]: + | average area occupied by amyloid plaques (Tg2576 AD mouse model): 0.22% | reduction of area occupied by amyloid plaques following mimotope treatment (Tg2576 AD mouse model): 36% | Inhibition Capacity [3]: 2 (strong inhibition (as original epitope; OD of 10 μg peptide below 2 times of original peptide))

Binding Capacity [2]: 3 (strong binding :>20000)
Molecule: ELFKHHLC [p4714]
Detection of Aβ/truncated/modified forms [1]: +

Binding Capacity [2]: 3 (strong binding :>20000)
Molecule: SPNQFRHC [p4707]
Detection of Aβ/truncated/modified forms [1]: + | Inhibition Capacity [3]: 1 (Weaker than original epitope (OD of 10 μg peptide below 3 times of original peptide))

Binding Capacity [2]: 3 (strong binding :>20000)
Molecule: YEFRHAQC [p4748]
Detection of Aβ/truncated/modified forms [1]: +

Binding Capacity [2]: 3 (strong binding :>20000)
Molecule: ADHDFRHC [p4740]
Detection of Aβ/truncated/modified forms [1]: + | Inhibition Capacity [3]: 1 (Weaker than original epitope (OD of 10 μg peptide below 3 times of original peptide))

Binding Capacity [2]: 3 (strong binding :>20000)
Molecule: QSEFKHWC [p4738]
Detection of Aβ/truncated/modified forms [1]: + | Inhibition Capacity [3]: 1 (Weaker than original epitope (OD of 10 μg peptide below 3 times of original peptide))

Binding Capacity [2]: 3 (strong binding :>20000)
Molecule: SEFKHC [p4801]
Inhibition Capacity [3]: 1 (Weaker than original epitope (OD of 10 μg peptide below 3 times of original peptide))

Binding Capacity [2]: 3 (strong binding :>20000)
Molecule: DEHPFRHC [p4730]
Detection of Aβ/truncated/modified forms [1]: + | Inhibition Capacity [3]: 1 (Weaker than original epitope (OD of 10 μg peptide below 3 times of original peptide))

Binding Capacity [2]: 3 (strong binding :>20000)
Molecule: HEFRHC [p4803]
Inhibition Capacity [3]: 2 (strong inhibition (as original epitope; OD of 10 μg peptide below 2 times of original peptide))

Binding Capacity [2]: 3 (strong binding :>20000)
Molecule: TEFRHKAC [p4753]
Detection of Aβ/truncated/modified forms [1]: + | Inhibition Capacity [3]: 2 (strong inhibition (as original epitope; OD of 10 μg peptide below 2 times of original peptide))

Binding Capacity (code (weak binding, OD halfmax 1:<24000)) [5]: 1 | Inhibition Capacity (code (weaker than original epitope)) [6]: 1
Molecule: EVWHRGC [p4788]

Inhibition Capacity (code (weaker than original epitope)) [7]: 1 | Binding Capacity [8]: 2
Molecule: IRWDGGC [p4793]

Inhibition Capacity (code (weaker than original epitope)) [7]: 1 | Binding Capacity (code (weak binding, OD halfmax 1:<16000)) [8]: 1
Molecule: IRWDGC [p4792]

Binding Capacity (code (weak binding, OD halfmax 1:<24000)) [5]: 1 | Inhibition Capacity (code (weaker than original epitope)) [6]: 1
Molecule: ELWHRAC [p4786]

Binding Capacity [5]: 2 | Inhibition Capacity (code (weaker than original epitope)) [6]: 1
Molecule: ELWHRYPC [p4420]

Binding Capacity (code (weak binding, OD halfmax 1:<24000)) [5]: 1 | Inhibition Capacity [6]: 2
Molecule: ERWHEKC [p4790]

Binding Capacity [5]: 3 | Inhibition Capacity [6]: 2
Molecule: ERWHEKHC [p4418]

Binding Capacity [5]: 2 | Inhibition Capacity [6]: 2
Molecule: ELWHRAFC [p4665]

Inhibition Capacity ([7]; scale: code): 2 | Binding Capacity [8]: 3
Molecule: IRWDTSLC [p4728]

Binding Capacity [5]: 3 | Inhibition Capacity [6]: 2
Molecule: EVWHRLQC [p4419]

Binding Capacity (code (weak binding, OD halfmax 1:<24000)) [5]: 1 | Inhibition Capacity (code (weaker than original epitope)) [6]: 1
Molecule: EVWHRHC [p4789]

Inhibition Capacity (code (weaker than original epitope)) [7]: 1 | Binding Capacity [8]: 3
Molecule: IRWDQPC [p4756]
